# Columns and labels:
# Type in all cases: in vivo
# [1] = test system: ducksalad (Heteranthera limosa); test: Test B flooded paddy test, visual rating; conditions: Flood, 250 g ai/ha, applied to paddy water, rated after 13 to 15 d
# Experimental: (§1) Plant species in the flooded paddy test selected from rice (Oryza sativa), sedge, umbrella (small-flower umbrella sedge, Cyperus difformis), ducksalad (Heteranthera limosa), and barnyardgrass (Echinochloa crus-galli) were grown to the 2-leaf stage for testing. At time of treatment, test pots were flooded to 3 cm above the soil surface, treated by application of test compounds directly to the paddy water, and then maintained at that water depth for the duration of the test. Treated plants and controls were maintained in a greenhouse for 13 to 15 d, after which time all species were compared to controls and visually evaluated. Plant response ratings, summarized in Table B, are based on a scale of 0 to 100 where 0 is no effect and 100 is complete control. A dash (-) response means no test result.
# [2] = test system: barnyardgrass (Echinochloa crus-galli); test: Test B flooded paddy test, visual rating; conditions: Flood, 250 g ai/ha, applied to paddy water, rated after 13 to 15 d
# Experimental: as §1
# rice (Oryza sativa) = test: Test B flooded paddy test, visual rating; conditions: Flood, 250 g ai/ha, applied to paddy water, rated after 13 to 15 d
# Experimental: as §1
# [3] = test system: sedge, umbrella (small-flower umbrella sedge, Cyperus difformis); test: Test B flooded paddy test, visual rating; conditions: Flood, 250 g ai/ha, applied to paddy water, rated after 13 to 15 d
# Experimental: as §1
# [4] = test system: foxtail, giant (giant foxtail, Setaria faberii); test: Test A postemergence application, visual injury rating; conditions: 0 to 100 scale, 0 no effect, 100 complete control
# From the text: (§2) Seeds of plant species selected from barnyardgrass (Echinochloa crus-galli), kochia (Kochia scoparia), ragweed (common ragweed, Ambrosia elatior), ryegrass, It. (Italian ryegrass, Lolium multiflorum), foxtail, giant (giant foxtail, Setaria faberii), and pigweed (Amaranthus retroflexus), were planted into a blend of loam soil and sand and treated preemergence with a directed soil spray using test chemicals formulated in a non-phytotoxic solvent mixture which included a surfactant.
# (§3) At the same time, plants selected from these weed species and also wheat (Triticum aestivum), corn (Zea mays), blackgrass (Alopecurus myosuroides), and galium (catchweed bedstraw, Galium aparine), were planted in pots containing the same blend of loam soil and sand and treated with postemergence applications of test chemicals formulated in the same manner Plants ranged in height from 2 to 10 cm and were in the one- to two-leaf stage for the postemergence treatment. Treated plants and untreated controls were maintained in a greenhouse for approximately 10 d, after which time all treated plants were compared to untreated controls and visually evaluated for injury. Plant response ratings, summarized in Table A, are based on a 0 to 100 scale where 0 is no effect and 100 is complete control. A dash (-) response means no test result.
# [5] = test system: barnyardgrass (Echinochloa crus-galli); test: as above; conditions: 0 to 100 scale, 0 no effect, 100 complete control
# From the text: as §2, §3
# [6] = test system: ryegrass, It. (Italian ryegrass, Lolium multiflorum); test: as above; conditions: 0 to 100 scale, 0 no effect, 100 complete control
# From the text: as §2, §3
# kochia (Kochia scoparia) [7] = test: as above; conditions: 0 to 100 scale, 0 no effect, 100 complete control
# From the text: as §2, §3
# corn (Zea mays) = test: as above; conditions: 0 to 100 scale, 0 no effect, 100 complete control
# From the text: as §2, §3
# [8] = test system: galium (catchweed bedstraw, Galium aparine); test: as above; conditions: 0 to 100 scale, 0 no effect, 100 complete control
# From the text: as §2, §3
# [9] = test system: pigweed (Amaranthus retroflexus); test: as above; conditions: 0 to 100 scale, 0 no effect, 100 complete control
# From the text: as §2, §3
# [10] = test system: ragweed (common ragweed, Ambrosia elatior); test: as above; conditions: 0 to 100 scale, 0 no effect, 100 complete control
# From the text: as §2, §3
# [11] = test system: blackgrass (Alopecurus myosuroides); test: as above; conditions: 0 to 100 scale, 0 no effect, 100 complete control
# From the text: as §2, §3
# [12] = test system: wheat (Triticum aestivum); test: as above; conditions: 0 to 100 scale, 0 no effect, 100 complete control
# From the text: as §2, §3
# [13] = test system: foxtail, giant (giant foxtail, Setaria faberii); test: Test A preemergence, directed soil spray, visual injury rating; conditions: 0 is no effect, 100 is complete control
# From the text: as §2, §3
# [14] = test system: barnyardgrass (Echinochloa crus-galli); test: as above; conditions: 0 is no effect, 100 is complete control
# From the text: as §2, §3
# [15] = test system: ryegrass, It. (Italian ryegrass, Lolium multiflorum); test: as above; conditions: 0 is no effect, 100 is complete control
# From the text: as §2, §3
# kochia (Kochia scoparia) [16] = test: as above; conditions: 0 is no effect, 100 is complete control
# From the text: as §2, §3
# [17] = test system: pigweed (Amaranthus retroflexus); test: as above; conditions: 0 is no effect, 100 is complete control
# From the text: as §2, §3
# [18] = test system: ragweed (common ragweed, Ambrosia elatior); test: as above; conditions: 0 is no effect, 100 is complete control
# From the text: as §2, §3
Structure (SMILES),"Ducksalad plant response rating (0 to 100 scale, 0 is no effect, 100 is complete control) [1]","Barnyardgrass plant response rating (0 to 100 scale, 0 is no effect, 100 is complete control) [2]","Rice plant response rating (0 to 100 scale, 0 is no effect, 100 is complete control) (rice (Oryza sativa))","Sedge, Umbrella plant response rating (0 to 100 scale, 0 is no effect, 100 is complete control) [3]","Foxtail, Giant plant response rating ([4]; 125 g ai/ha)","Foxtail, Giant plant response rating ([4]; 500 g ai/ha)",Barnyardgrass plant response rating ([5]; 125 g ai/ha),Barnyardgrass plant response rating ([5]; 500 g ai/ha),"Ryegrass, It. plant response rating ([6]; 125 g ai/ha)","Ryegrass, It. plant response rating ([6]; 500 g ai/ha)",Kochia plant response rating (kochia (Kochia scoparia) [7]; 125 g ai/ha),Kochia plant response rating (kochia (Kochia scoparia) [7]; 500 g ai/ha),Corn plant response rating (corn (Zea mays); 125 g ai/ha),Corn plant response rating (corn (Zea mays); 500 g ai/ha),Galium plant response rating ([8]; 125 g ai/ha),Galium plant response rating ([8]; 500 g ai/ha),Pigweed plant response rating ([9]; 125 g ai/ha),Pigweed plant response rating ([9]; 500 g ai/ha),Ragweed plant response rating ([10]; 125 g ai/ha),Ragweed plant response rating ([10]; 500 g ai/ha),further results
Cc1ccc2ccoc2c1-c1c(O)c(C)nn(C)c1=O [Compound 7],0,0,0,0,80,90,30,80,100,100,100,100,0,60,100,100,90,90,90,90,"Blackgrass plant response rating ([11]; 125 g ai/ha): 80; Blackgrass plant response rating ([11]; 500 g ai/ha): 90; Wheat plant response rating ([12]; 125 g ai/ha): 20; Wheat plant response rating ([12]; 500 g ai/ha): 70; Plant response rating (0 to 100 scale), Foxtail, Giant ([13]; 125 g ai/ha): 20; Plant response rating (0 to 100 scale), Foxtail, Giant ([13]; 500 g ai/ha): 90; Plant response rating (0 to 100 scale), Barnyardgrass ([14]; 125 g ai/ha): 10; Plant response rating (0 to 100 scale), Barnyardgrass ([14]; 500 g ai/ha): 90; Plant response rating (0 to 100 scale), Ryegrass, It. ([15]; 125 g ai/ha): 100; Plant response rating (0 to 100 scale), Ryegrass, It. ([15]; 500 g ai/ha): 100; Plant response rating (0 to 100 scale), Kochia (kochia (Kochia scoparia) [16]; 125 g ai/ha): 30; Plant response rating (0 to 100 scale), Kochia (kochia (Kochia scoparia) [16]; 500 g ai/ha): 90; Plant response rating (0 to 100 scale), Pigweed ([17]; 125 g ai/ha): 100; Plant response rating (0 to 100 scale), Pigweed ([17]; 500 g ai/ha): 100; Plant response rating (0 to 100 scale), Ragweed ([18]; 125 g ai/ha): 40; Plant response rating (0 to 100 scale), Ragweed ([18]; 500 g ai/ha): 90"
CC(=O)Oc1c(C)nn(C)c(=O)c1-c1cncc2ccccc12 [Compound 8],0,0,0,0,0,20,0,20,0,30,30,80,0,0,10,80,70,80,0,0,"Blackgrass plant response rating ([11]; 125 g ai/ha): 0; Blackgrass plant response rating ([11]; 500 g ai/ha): 0; Wheat plant response rating ([12]; 125 g ai/ha): 0; Wheat plant response rating ([12]; 500 g ai/ha): 0; Plant response rating (0 to 100 scale), Foxtail, Giant ([13]; 125 g ai/ha): 0; Plant response rating (0 to 100 scale), Foxtail, Giant ([13]; 500 g ai/ha): 20; Plant response rating (0 to 100 scale), Barnyardgrass ([14]; 125 g ai/ha): 0; Plant response rating (0 to 100 scale), Barnyardgrass ([14]; 500 g ai/ha): 0; Plant response rating (0 to 100 scale), Ryegrass, It. ([15]; 125 g ai/ha): 0; Plant response rating (0 to 100 scale), Ryegrass, It. ([15]; 500 g ai/ha): 30; Plant response rating (0 to 100 scale), Kochia (kochia (Kochia scoparia) [16]; 125 g ai/ha): 0; Plant response rating (0 to 100 scale), Kochia (kochia (Kochia scoparia) [16]; 500 g ai/ha): 0; Plant response rating (0 to 100 scale), Pigweed ([17]; 125 g ai/ha): 20; Plant response rating (0 to 100 scale), Pigweed ([17]; 500 g ai/ha): 70; Plant response rating (0 to 100 scale), Ragweed ([18]; 125 g ai/ha): 0; Plant response rating (0 to 100 scale), Ragweed ([18]; 500 g ai/ha): 0"
Cc1nn(C)c(=O)c(-c2c(C)sc3ncccc23)c1OC(=O)OC(C)C [Compound 15],0,0,0,0,0,0,0,0,0,0,0,0,0,0,0,0,0,0,0,0,"Blackgrass plant response rating ([11]; 125 g ai/ha): 0; Blackgrass plant response rating ([11]; 500 g ai/ha): 0; Wheat plant response rating ([12]; 125 g ai/ha): 0; Wheat plant response rating ([12]; 500 g ai/ha): 0; Plant response rating (0 to 100 scale), Foxtail, Giant ([13]; 125 g ai/ha): 0; Plant response rating (0 to 100 scale), Foxtail, Giant ([13]; 500 g ai/ha): 0; Plant response rating (0 to 100 scale), Barnyardgrass ([14]; 125 g ai/ha): 0; Plant response rating (0 to 100 scale), Barnyardgrass ([14]; 500 g ai/ha): 0; Plant response rating (0 to 100 scale), Ryegrass, It. ([15]; 125 g ai/ha): 0; Plant response rating (0 to 100 scale), Ryegrass, It. ([15]; 500 g ai/ha): 0; Plant response rating (0 to 100 scale), Kochia (kochia (Kochia scoparia) [16]; 125 g ai/ha): 0; Plant response rating (0 to 100 scale), Kochia (kochia (Kochia scoparia) [16]; 500 g ai/ha): 0; Plant response rating (0 to 100 scale), Pigweed ([17]; 125 g ai/ha): 0; Plant response rating (0 to 100 scale), Pigweed ([17]; 500 g ai/ha): 0; Plant response rating (0 to 100 scale), Ragweed ([18]; 125 g ai/ha): 0; Plant response rating (0 to 100 scale), Ragweed ([18]; 500 g ai/ha): 0"
COc1ncc(-c2c(O)c(C)nn(C)c2=O)c2ccccc12 [Compound 16],0,0,0,0,0,0,0,10,90,100,70,100,0,0,70,100,40,70,30,70,"Blackgrass plant response rating ([11]; 125 g ai/ha): 0; Blackgrass plant response rating ([11]; 500 g ai/ha): 20; Wheat plant response rating ([12]; 125 g ai/ha): 0; Wheat plant response rating ([12]; 500 g ai/ha): 0; Plant response rating (0 to 100 scale), Foxtail, Giant ([13]; 125 g ai/ha): 0; Plant response rating (0 to 100 scale), Foxtail, Giant ([13]; 500 g ai/ha): 0; Plant response rating (0 to 100 scale), Barnyardgrass ([14]; 125 g ai/ha): 0; Plant response rating (0 to 100 scale), Barnyardgrass ([14]; 500 g ai/ha): 0; Plant response rating (0 to 100 scale), Ryegrass, It. ([15]; 125 g ai/ha): 80; Plant response rating (0 to 100 scale), Ryegrass, It. ([15]; 500 g ai/ha): 90; Plant response rating (0 to 100 scale), Kochia (kochia (Kochia scoparia) [16]; 125 g ai/ha): 40; Plant response rating (0 to 100 scale), Kochia (kochia (Kochia scoparia) [16]; 500 g ai/ha): 100; Plant response rating (0 to 100 scale), Pigweed ([17]; 125 g ai/ha): 30; Plant response rating (0 to 100 scale), Pigweed ([17]; 500 g ai/ha): 100; Plant response rating (0 to 100 scale), Ragweed ([18]; 125 g ai/ha): 30; Plant response rating (0 to 100 scale), Ragweed ([18]; 500 g ai/ha): 70"

# Reference: patent publication US10750743B2, “Pyridazinone herbicides” (E.I. DU PONT DE NEMOURS AND COMPANY, priority 2015, dated 2020)
